{"source": "ChEMBL document CHEMBL4507311", "about": "“Data for DCP probe A-1155463” (2021)", "key": {"[1]": {"system": "Tyrosine-protein kinase ABL1 (Homo sapiens), P00519 [E255K]", "conditions": "Compound concentration 1000.0 nM"}, "[2]": {"system": "ALK tyrosine kinase receptor (Homo sapiens), Q9UM73 [L1196M]", "conditions": "Compound concentration 1000.0 nM"}, "[3]": {"target": "Aurora kinase A (Homo sapiens) (UniProt O14965)", "sequence (O14965 whole entry)": "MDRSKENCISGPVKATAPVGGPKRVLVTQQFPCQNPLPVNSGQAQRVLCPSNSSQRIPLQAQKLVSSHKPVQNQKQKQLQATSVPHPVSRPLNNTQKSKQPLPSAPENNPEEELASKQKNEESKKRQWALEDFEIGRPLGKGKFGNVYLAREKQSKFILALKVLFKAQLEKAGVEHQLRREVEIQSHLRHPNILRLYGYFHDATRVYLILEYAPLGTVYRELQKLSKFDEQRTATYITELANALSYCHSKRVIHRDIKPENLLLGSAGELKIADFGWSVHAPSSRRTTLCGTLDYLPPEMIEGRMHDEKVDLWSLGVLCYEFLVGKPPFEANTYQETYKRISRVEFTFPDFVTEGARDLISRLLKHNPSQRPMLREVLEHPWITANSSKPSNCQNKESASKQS", "conditions": "Compound concentration 1000.0 nM"}, "[4]": {"target": "Serine/threonine-protein kinase BRSK2 (Homo sapiens) (UniProt Q8IWQ3)", "sequence (Q8IWQ3 whole entry)": "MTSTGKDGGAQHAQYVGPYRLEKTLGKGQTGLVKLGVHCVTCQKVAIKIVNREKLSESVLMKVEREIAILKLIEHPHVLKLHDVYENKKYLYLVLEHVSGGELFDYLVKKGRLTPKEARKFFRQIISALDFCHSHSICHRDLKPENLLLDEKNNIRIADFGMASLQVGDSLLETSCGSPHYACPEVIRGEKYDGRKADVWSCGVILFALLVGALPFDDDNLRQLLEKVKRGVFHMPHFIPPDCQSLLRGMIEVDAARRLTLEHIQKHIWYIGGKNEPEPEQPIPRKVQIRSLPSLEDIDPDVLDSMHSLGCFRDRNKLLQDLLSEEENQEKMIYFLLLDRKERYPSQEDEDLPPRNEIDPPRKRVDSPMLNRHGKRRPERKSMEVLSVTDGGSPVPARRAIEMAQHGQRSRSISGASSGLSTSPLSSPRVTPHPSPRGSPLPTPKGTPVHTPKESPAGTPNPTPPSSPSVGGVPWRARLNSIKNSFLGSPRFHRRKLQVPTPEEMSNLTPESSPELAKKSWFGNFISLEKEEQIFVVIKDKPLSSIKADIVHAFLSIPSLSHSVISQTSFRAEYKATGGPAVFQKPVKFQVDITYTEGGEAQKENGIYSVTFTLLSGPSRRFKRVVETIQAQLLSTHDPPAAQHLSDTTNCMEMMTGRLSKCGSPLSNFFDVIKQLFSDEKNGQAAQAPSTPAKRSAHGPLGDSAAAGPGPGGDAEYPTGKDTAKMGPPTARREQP", "conditions": "Compound concentration 1000.0 nM"}, "[5]": {"target": "Serine/threonine-protein kinase DCLK2 (Homo sapiens) (UniProt Q8N568)", "conditions": "Compound concentration 1000.0 nM"}, "[6]": {"system": "Epidermal growth factor receptor (Homo sapiens), P00533 [G719S]", "conditions": "Compound concentration 1000.0 nM"}, "[7]": {"system": "Epidermal growth factor receptor (Homo sapiens), P00533 [UNDEFINED MUTATION]", "conditions": "Compound concentration 1000.0 nM"}, "[8]": {"system": "Epidermal growth factor receptor (Homo sapiens), P00533 [UNDEFINED MUTATION]", "conditions": "Compound concentration 1000.0 nM", "remark": "listed apart in the source"}, "[9]": {"system": "Epidermal growth factor receptor (Homo sapiens), P00533 [L858R,T790M]", "conditions": "Compound concentration 1000.0 nM"}, "[10]": {"target": "Ephrin type-A receptor 1 (Homo sapiens) (UniProt P21709)", "conditions": "Compound concentration 1000.0 nM"}, "[11]": {"target": "Ephrin type-A receptor 3 (Homo sapiens) (UniProt P29320)", "sequence (P29320 whole entry)": "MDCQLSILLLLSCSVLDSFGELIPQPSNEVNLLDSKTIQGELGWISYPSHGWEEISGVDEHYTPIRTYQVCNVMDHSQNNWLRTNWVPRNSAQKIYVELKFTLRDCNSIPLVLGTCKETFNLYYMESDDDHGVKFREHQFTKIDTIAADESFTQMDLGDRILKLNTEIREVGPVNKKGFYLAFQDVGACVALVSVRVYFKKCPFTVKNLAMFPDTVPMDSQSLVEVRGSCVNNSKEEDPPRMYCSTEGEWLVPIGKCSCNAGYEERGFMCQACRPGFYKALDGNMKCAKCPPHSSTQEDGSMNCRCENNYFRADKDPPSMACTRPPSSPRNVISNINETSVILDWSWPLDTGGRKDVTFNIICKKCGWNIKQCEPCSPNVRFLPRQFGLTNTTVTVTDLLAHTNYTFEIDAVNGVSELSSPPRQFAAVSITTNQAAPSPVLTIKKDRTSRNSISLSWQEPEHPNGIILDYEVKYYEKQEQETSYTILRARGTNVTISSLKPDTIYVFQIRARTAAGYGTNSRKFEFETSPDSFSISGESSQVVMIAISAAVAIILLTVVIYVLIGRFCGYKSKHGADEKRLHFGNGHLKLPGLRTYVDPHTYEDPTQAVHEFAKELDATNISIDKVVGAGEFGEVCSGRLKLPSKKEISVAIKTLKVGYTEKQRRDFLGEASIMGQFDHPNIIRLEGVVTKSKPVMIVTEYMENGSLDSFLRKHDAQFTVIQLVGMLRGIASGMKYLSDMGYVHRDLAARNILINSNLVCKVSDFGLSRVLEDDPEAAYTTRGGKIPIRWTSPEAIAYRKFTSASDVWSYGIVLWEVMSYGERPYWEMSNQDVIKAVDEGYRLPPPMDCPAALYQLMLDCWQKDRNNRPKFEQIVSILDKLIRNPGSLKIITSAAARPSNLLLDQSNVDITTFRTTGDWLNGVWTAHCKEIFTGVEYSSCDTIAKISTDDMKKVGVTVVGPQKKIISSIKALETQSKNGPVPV", "conditions": "Compound concentration 1000.0 nM"}, "[12]": {"target": "Ephrin type-B receptor 4 (Homo sapiens) (UniProt P54760)", "conditions": "Compound concentration 1000.0 nM"}, "[13]": {"target": "Mitogen-activated protein kinase 4 (Homo sapiens) (UniProt P31152)", "conditions": "Compound concentration 1000.0 nM"}, "[14]": {"target": "Focal adhesion kinase 1 (Homo sapiens) (UniProt Q05397)", "conditions": "Compound concentration 1000.0 nM"}, "[15]": {"target": "Tyrosine-protein kinase Fer (Homo sapiens) (UniProt P16591)", "conditions": "Compound concentration 1000.0 nM"}, "[16]": {"target": "Fibroblast growth factor receptor 1 (Homo sapiens) (UniProt P11362)", "conditions": "Compound concentration 1000.0 nM"}, "[17]": {"system": "Receptor-type tyrosine-protein kinase FLT3 (Homo sapiens), P36888 [K663Q]", "conditions": "Compound concentration 1000.0 nM"}, "[18]": {"target": "Homeodomain-interacting protein kinase 1 (Homo sapiens) (UniProt Q86Z02)", "conditions": "Compound concentration 1000.0 nM"}, "[19]": {"target": "Interleukin-1 receptor-associated kinase 1 (Homo sapiens) (UniProt P51617)", "conditions": "Compound concentration 1000.0 nM"}, "[20]": {"target": "Mast/stem cell growth factor receptor Kit (Homo sapiens) (UniProt P10721)", "conditions": "Compound concentration 1000.0 nM"}, "[21]": {"target": "LIM domain kinase 2 (Homo sapiens) (UniProt P53671)", "conditions": "Compound concentration 1000.0 nM"}, "[22]": {"target": "Mitogen-activated protein kinase kinase kinase 1 (Homo sapiens) (UniProt Q13233)", "conditions": "Compound concentration 1000.0 nM"}, "[23]": {"target": "Mitogen-activated protein kinase kinase kinase kinase 4 (Homo sapiens) (UniProt O95819)", "conditions": "Compound concentration 1000.0 nM"}, "[24]": {"target": "Serine/threonine-protein kinase OSR1 (Homo sapiens) (UniProt O95747)", "sequence (O95747 2-527 limits assumed)": "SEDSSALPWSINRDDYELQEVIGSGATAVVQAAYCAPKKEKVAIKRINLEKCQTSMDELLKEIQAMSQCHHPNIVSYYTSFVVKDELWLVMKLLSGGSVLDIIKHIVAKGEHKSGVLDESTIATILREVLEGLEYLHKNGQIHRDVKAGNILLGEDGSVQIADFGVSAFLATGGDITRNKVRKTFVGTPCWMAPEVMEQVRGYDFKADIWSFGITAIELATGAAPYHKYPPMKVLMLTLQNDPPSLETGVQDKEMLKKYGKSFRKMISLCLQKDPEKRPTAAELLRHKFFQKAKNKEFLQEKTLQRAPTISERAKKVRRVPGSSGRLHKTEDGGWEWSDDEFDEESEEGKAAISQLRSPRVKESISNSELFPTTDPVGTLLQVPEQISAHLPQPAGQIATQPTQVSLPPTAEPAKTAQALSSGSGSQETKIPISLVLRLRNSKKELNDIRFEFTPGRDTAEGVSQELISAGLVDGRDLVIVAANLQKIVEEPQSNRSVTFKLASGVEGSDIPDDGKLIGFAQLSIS", "conditions": "Compound concentration 1000.0 nM"}, "[25]": {"target": "Serine/threonine-protein kinase PAK 1 (Homo sapiens) (UniProt Q13153)", "conditions": "Compound concentration 1000.0 nM"}, "[26]": {"target": "Protein kinase C epsilon type (Homo sapiens) (UniProt Q02156)", "conditions": "Compound concentration 1000.0 nM"}, "[27]": {"target": "Serine/threonine-protein kinase 35 (Homo sapiens) (UniProt Q8TDR2)", "conditions": "Compound concentration 1000.0 nM"}, "[28]": {"target": "STE20/SPS1-related proline-alanine-rich protein kinase (Homo sapiens) (UniProt Q9UEW8)", "conditions": "Compound concentration 1000.0 nM"}, "[29]": {"target": "Serine/threonine-protein kinase TAO2 (Homo sapiens) (UniProt Q9UL54)", "sequence (Q9UL54 whole entry)": "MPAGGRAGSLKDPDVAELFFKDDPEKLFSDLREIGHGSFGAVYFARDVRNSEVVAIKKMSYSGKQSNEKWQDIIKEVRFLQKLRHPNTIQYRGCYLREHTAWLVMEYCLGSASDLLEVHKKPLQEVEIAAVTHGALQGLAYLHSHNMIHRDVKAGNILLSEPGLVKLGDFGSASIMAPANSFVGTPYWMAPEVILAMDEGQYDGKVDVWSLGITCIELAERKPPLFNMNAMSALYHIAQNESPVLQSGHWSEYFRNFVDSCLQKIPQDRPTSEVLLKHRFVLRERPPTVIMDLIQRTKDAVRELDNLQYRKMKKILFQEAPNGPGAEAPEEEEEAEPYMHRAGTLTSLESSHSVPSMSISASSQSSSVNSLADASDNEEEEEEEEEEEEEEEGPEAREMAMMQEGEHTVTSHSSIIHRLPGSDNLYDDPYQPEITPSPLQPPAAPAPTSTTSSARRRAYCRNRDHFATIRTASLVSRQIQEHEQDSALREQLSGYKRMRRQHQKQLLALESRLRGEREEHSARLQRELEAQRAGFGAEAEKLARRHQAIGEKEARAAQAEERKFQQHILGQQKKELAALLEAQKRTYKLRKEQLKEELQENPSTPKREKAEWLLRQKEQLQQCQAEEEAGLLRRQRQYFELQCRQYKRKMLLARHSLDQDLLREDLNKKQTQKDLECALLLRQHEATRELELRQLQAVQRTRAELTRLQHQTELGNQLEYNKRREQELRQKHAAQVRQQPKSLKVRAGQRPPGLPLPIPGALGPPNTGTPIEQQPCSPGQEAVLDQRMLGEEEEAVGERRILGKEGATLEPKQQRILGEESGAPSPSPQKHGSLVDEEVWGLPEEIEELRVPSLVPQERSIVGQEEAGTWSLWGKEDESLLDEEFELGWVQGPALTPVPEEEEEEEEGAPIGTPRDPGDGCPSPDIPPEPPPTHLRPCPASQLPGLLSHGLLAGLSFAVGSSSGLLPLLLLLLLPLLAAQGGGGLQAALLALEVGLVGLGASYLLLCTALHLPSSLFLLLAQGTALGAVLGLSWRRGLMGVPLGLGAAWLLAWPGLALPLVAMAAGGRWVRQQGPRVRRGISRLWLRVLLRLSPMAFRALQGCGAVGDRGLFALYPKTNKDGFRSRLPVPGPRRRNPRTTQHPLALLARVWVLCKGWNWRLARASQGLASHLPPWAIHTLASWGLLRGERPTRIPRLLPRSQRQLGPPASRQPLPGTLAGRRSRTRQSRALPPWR", "conditions": "Compound concentration 1000.0 nM"}, "[30]": {"target": "Angiopoietin-1 receptor (Homo sapiens) (UniProt Q02763)", "conditions": "Compound concentration 1000.0 nM"}, "[31]": {"target": "Testis-specific serine/threonine-protein kinase 1 (Homo sapiens) (UniProt Q9BXA7)", "conditions": "Compound concentration 1000.0 nM"}, "[32]": {"target": "Serine/threonine-protein kinase ULK2 (Homo sapiens) (UniProt Q8IYT8)", "sequence (Q8IYT8 whole entry)": "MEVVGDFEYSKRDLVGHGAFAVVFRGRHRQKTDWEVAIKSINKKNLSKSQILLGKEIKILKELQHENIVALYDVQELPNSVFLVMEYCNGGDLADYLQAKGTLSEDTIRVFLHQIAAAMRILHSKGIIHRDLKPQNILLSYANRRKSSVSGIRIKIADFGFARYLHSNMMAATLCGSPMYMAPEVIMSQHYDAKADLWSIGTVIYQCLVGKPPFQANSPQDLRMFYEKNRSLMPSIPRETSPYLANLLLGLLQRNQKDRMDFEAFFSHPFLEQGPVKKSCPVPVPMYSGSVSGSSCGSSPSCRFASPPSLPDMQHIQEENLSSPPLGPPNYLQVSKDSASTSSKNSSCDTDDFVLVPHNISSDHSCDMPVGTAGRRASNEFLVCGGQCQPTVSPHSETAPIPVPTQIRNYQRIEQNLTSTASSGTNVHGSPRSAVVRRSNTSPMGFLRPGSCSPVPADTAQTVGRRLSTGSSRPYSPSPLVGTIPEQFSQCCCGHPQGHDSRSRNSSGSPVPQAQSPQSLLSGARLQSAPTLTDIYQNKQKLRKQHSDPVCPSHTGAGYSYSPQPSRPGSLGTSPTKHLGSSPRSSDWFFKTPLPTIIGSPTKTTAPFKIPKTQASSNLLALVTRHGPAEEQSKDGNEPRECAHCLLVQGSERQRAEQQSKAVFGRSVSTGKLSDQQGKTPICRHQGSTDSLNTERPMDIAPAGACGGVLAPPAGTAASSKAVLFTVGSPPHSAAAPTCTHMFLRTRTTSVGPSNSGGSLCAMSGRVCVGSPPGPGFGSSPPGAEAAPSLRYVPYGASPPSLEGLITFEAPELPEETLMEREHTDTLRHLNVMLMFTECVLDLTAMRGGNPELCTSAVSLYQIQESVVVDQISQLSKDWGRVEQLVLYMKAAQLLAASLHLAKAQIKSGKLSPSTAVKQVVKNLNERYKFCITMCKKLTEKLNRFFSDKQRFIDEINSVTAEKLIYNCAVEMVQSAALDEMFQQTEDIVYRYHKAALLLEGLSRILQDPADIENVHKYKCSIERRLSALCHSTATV", "conditions": "Compound concentration 1000.0 nM"}, "[33]": {"target": "Wee1-like protein kinase 2 (Homo sapiens) (UniProt P0C1S8)", "conditions": "Compound concentration 1000.0 nM"}, "[34]": {"target": "Serine/threonine-protein kinase WNK2 (Homo sapiens) (UniProt Q9Y3S1)", "conditions": "Compound concentration 1000.0 nM"}, "[35]": {"target": "Serine/threonine-protein kinase 32A (Homo sapiens) (UniProt Q8WU08)", "conditions": "Compound concentration 1000.0 nM"}, "[36]": {"target": "Serine/threonine-protein kinase 25 (Homo sapiens) (UniProt O00506)", "conditions": "Compound concentration 1000.0 nM"}, "[37]": {"target": "5-hydroxytryptamine receptor 5A (Homo sapiens) (UniProt P47898)", "conditions": "Compound concentration 10.0 uM"}, "[38]": {"target": "Histamine H3 receptor (Homo sapiens, UniProt Q9Y5N1)", "conditions": "Compound concentration 10.0 uM"}, "[39]": {"target": "T1, Alpha-2B adrenergic receptor (Homo sapiens) (UniProt P18089)", "T1 sequence (whole entry)": "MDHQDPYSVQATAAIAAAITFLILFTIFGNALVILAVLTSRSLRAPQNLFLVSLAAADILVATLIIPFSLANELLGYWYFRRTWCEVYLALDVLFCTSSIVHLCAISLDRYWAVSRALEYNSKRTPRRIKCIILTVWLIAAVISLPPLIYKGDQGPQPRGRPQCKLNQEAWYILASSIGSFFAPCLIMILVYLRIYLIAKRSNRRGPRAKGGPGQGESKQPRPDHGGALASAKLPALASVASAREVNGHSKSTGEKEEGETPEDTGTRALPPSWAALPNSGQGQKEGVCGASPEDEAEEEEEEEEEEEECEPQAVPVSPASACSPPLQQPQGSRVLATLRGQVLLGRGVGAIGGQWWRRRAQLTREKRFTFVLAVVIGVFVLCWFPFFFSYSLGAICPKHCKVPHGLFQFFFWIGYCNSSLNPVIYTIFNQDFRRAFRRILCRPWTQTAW", "conditions": "Compound concentration 10.0 uM"}}, "data": [{"smiles": "CN(C)CC#Cc1ccc(OCCCc2sc(N3CCc4cccc(C(=O)Nc5nc6ccccc6s5)c4C3)nc2C(=O)O)c(F)c1", "note": "[A-1155463]", "values": [{"measurement": "residual activity", "setting": "[1]", "value": 85, "unit": "%"}, {"measurement": "residual activity", "setting": "[2]", "value": 100, "unit": "%"}, {"measurement": "residual activity", "setting": "[3]", "value": 92, "unit": "%"}, {"measurement": "residual activity", "setting": "[4]", "value": 93, "unit": "%"}, {"measurement": "residual activity", "setting": "[5]", "value": 100, "unit": "%"}, {"measurement": "residual activity", "setting": "[6]", "value": 100, "unit": "%"}, {"measurement": "residual activity", "setting": "[7]", "value": 89, "unit": "%"}, {"measurement": "residual activity", "setting": "[8]", "value": 100, "unit": "%"}, {"measurement": "residual activity", "setting": "[9]", "value": 100, "unit": "%"}, {"measurement": "residual activity", "setting": "[10]", "value": 100, "unit": "%"}, {"measurement": "residual activity", "setting": "[11]", "value": 91, "unit": "%"}, {"measurement": "residual activity", "setting": "[12]", "value": 100, "unit": "%"}, {"measurement": "residual activity", "setting": "[13]", "value": 89, "unit": "%"}, {"measurement": "residual activity", "setting": "[14]", "value": 100, "unit": "%"}, {"measurement": "residual activity", "setting": "[15]", "value": 100, "unit": "%"}, {"measurement": "residual activity", "setting": "[16]", "value": 100, "unit": "%"}, {"measurement": "residual activity", "setting": "[17]", "value": 100, "unit": "%"}, {"measurement": "residual activity", "setting": "[18]", "value": 75, "unit": "%"}, {"measurement": "residual activity", "setting": "[19]", "value": 100, "unit": "%"}, {"measurement": "residual activity", "setting": "[20]", "value": 97, "unit": "%"}, {"measurement": "residual activity", "setting": "[21]", "value": 96, "unit": "%"}, {"measurement": "residual activity", "setting": "[22]", "value": 100, "unit": "%"}, {"measurement": "residual activity", "setting": "[23]", "value": 96, "unit": "%"}, {"measurement": "residual activity", "setting": "[24]", "value": 86, "unit": "%"}, {"measurement": "residual activity", "setting": "[25]", "value": 98, "unit": "%"}, {"measurement": "residual activity", "setting": "[26]", "value": 100, "unit": "%"}, {"measurement": "residual activity", "setting": "[27]", "value": 86, "unit": "%"}, {"measurement": "residual activity", "setting": "[28]", "value": 100, "unit": "%"}, {"measurement": "residual activity", "setting": "[29]", "value": 100, "unit": "%"}, {"measurement": "residual activity", "setting": "[30]", "value": 100, "unit": "%"}, {"measurement": "residual activity", "setting": "[31]", "value": 70, "unit": "%"}, {"measurement": "residual activity", "setting": "[32]", "value": 100, "unit": "%"}, {"measurement": "residual activity", "setting": "[33]", "value": 100, "unit": "%"}, {"measurement": "residual activity", "setting": "[34]", "value": 96, "unit": "%"}, {"measurement": "residual activity", "setting": "[35]", "value": 100, "unit": "%"}, {"measurement": "residual activity", "setting": "[36]", "value": 100, "unit": "%"}, {"measurement": "inhibition", "setting": "[37]", "value": -3.1, "unit": "%"}, {"measurement": "inhibition", "setting": "[38]", "value": 53.3, "unit": "%"}, {"measurement": "inhibition", "setting": "[39]", "value": 17.2, "unit": "%"}]}]}
